Tested on: dorsal root ganglion neurons
Experiment: Fura-2 calcium imaging of dorsal root ganglion neurons
Assay type: cell-based, rat
Settings: 1 mM citral; freshly isolated neurons
Text: Dorsal root ganglion neurons from all spinal levels were removed from postnatal day 12 to 20 Sprague Dawley rats and the nerve roots trimmed. Calcium- and magnesium-free (CMF) Hank's solution contained (in mM): 136.9 sodium chloride, 5.4 potassium chloride, 0.34 dibasic sodium orthophosphate, 0.44 monopotassium phosphate, 5.6 glucose, 5 4-(2-hydroxyethyl)-1-piperazineethanesulfonic acid, 0.005% phenol red, pH 7.4. CMF Hank's was used throughout the isolation and enzymatic treatments. The isolated ganglia were treated for 20 minutes at 37°C with 20 U/ml of papain (Worthington Biochemical, Lakewood, NJ) and 5 mM cysteine. The ganglia were then transferred to CMF Hank's with 3 mg/ml collagenase (type I; Worthington) and 4 mg/ml dispase (neutral type II; Roche Applied Science, Indianapolis, IN) for 20 minutes at 37°C. […]
Dorsal root ganglion neurons were loaded with 5 µM fura-2 AM and 0.02% pluronic acid in media at 37°C for 60 minutes. […] The MetaFluor imaging system (Universal Imaging Corporation) was used to record fluorescence at 340 and 380 nm excitation wavelengths. Background fluorescence, measured as the ratio 340/380 in a “cell-free” zone during the experiment, was subtracted from the data. […]

SMILES: CC(C)=CCCC(C)=CC=O [citral, 3,7-dimethyl-2,6-octadienal]
- Neurons with increased internal calcium concentration among capsaicin-responsive neurons: 12 of 35
